# Numbered stars: 1 amine (or outer) side, 2 acyl side, 3 side chain; on linkers, the order of the positions; unused ones are H or OH. Bridge positions count the residues as written; N and C are the ends. Square brackets hold non-standard residues; d marks the D form. Peptide text beside a SMILES is read from it. * marks the point of attachment. ξ: configuration not given here. Phe(4-COOH) = N[C@@H](Cc1ccc(C(=O)O)cc1)C(=O)O; Bip = N[C@@H](Cc1ccc(-c2ccccc2)cc1)C(=O)O; Phe(3-F) = N[C@@H](Cc1cccc(F)c1)C(=O)O; Phe(3-Me) = Cc1cccc(C[C@H](N)C(=O)O)c1; X5 = CC(C)(CCN)[C@H](N[*:1])C(=O)[*:2]; NH(CH2)12COOH = O=C(O)CCCCCCCCCCCCN*; Val(3-OH) = CC(C)(O)[C@H](N)C(=O)O; X17 = O=C(C(CN1CCOCC1)N[*:1])[*:2]; X8 = CC(C)(F)C(N[*:1])C(=O)[*:2]; Aad = N[C@@H](CCCC(=O)O)C(=O)O; Cha = N[C@@H](CC1CCCCC1)C(=O)O; Thr(3ξ) = CC(O)[C@H](N)C(=O)O; Carboxymethyl = O=C(O)C*; Orn = NCCC[C@H](N)C(=O)O; Aun = NCCCCCCCCCCC(=O)O; Dab = NCC[C@H](N)C(=O)O; Dap = NC[C@H](N)C(=O)O; AEEA = NCCOCCOCC(=O)O
# Molecular target: T1, PD-1/PD-L1 interaction (PE-labeled human PD-L1-Ig binding to Jurkat cell line over-expressing human PD-1) (Homo sapiens, UniProt Q15116)
# T1 construct: expressed in transfected cells; host or cells: Jurkat
# T1 sequence (Q15116 25-288): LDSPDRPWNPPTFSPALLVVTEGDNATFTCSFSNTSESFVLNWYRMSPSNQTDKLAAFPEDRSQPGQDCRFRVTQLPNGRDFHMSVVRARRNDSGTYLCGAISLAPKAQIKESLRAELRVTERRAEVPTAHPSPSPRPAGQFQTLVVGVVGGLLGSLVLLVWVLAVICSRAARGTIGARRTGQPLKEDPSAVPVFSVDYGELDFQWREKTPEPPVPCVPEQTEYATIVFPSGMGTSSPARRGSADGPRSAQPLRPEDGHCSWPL
# Test: Jurkat-PD-1 Cell Binding High-Content Screening Assay (CBA)
# Assay type: cell-based
# Conditions: Jurkat cell line over-expressing human PD-1; PE-labeled PD-L1-Ig 20 nM final; read-out: Jurkat hPD1-PDL1 IC50
# Summary of the method: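 Jurkat cells over-expressing human PD-1 (8×10^3 per well, DMEM/10% FCS) preincubated with compound 2 h at 37° C, then PE-labeled human PD-L1-Ig (20 nM final) added for 1 h. Cells fixed with paraformaldehyde, Hoechst-stained, and bound fluorescence quantified by high-content imaging.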
row,IC50,SMILES
1,17.9 nM,Cc1cccc(C[C@@H]2NC(=O)[C@H](CC(=O)O)NC(=O)[C@H](Cc3ccc(OCC(=O)O)cc3)NC(=O)[C@H](CCCC(=O)O)NC(=O)CSC[C@@H](C(=O)N[C@@H](CCN)C(=O)NCCCCCCCCCCCCC(=O)O)NC(=O)[C@H](CO)NC(=O)[C@H](C(C)(C)O)NC(=O)[C@H](CC3CCCCC3)NC(=O)[C@H](CCN)NC(=O)[C@@H](CC(C)C)NC(=O)[C@H](CCCN)NC(=O)[C@H](Cc3ccc(OCC(=O)O)cc3)NC(=O)[C@H](Cc3ccc(-c4ccccc4)cc3)NC(=O)[C@H](Cc3ccc(OCC(=O)O)cc3)NC2=O)c1 [Compound 2259] ({CH2CO}-[Aad]Y(Carboxymethyl)D[Phe(3-Me)]Y(Carboxymethyl)[Bip]Y(Carboxymethyl)[Orn][dL][Dab][Cha][Val(3-OH)]SC[Dab]-{NH(CH2)12COOH}; thioether N-14)
2,207 nM,Cc1cccc(C[C@@H]2NC(=O)[C@H](CC(=O)O)NC(=O)[C@H](Cc3ccc(OCC(=O)O)cc3)NC(=O)[C@H](CCN)NC(=O)CSC[C@@H](C(=O)N[C@H](C(=O)NCCCCCCCCCCC(=O)O)C(C)(C)CCN)NC(=O)[C@H](CO)NC(=O)[C@H](C(C)(C)O)NC(=O)[C@H](CC3CCCCC3)NC(=O)[C@H](CCN)NC(=O)[C@@H](CC(C)C)NC(=O)[C@H](CCCN)NC(=O)[C@H](Cc3ccc(OCC(=O)O)cc3)NC(=O)[C@H](Cc3ccc(-c4ccccc4)cc3)NC(=O)[C@H](Cc3ccc(OCC(=O)O)cc3)NC2=O)c1 [Compound 2261] ({CH2CO}-[Dab]Y(Carboxymethyl)D[Phe(3-Me)]Y(Carboxymethyl)[Bip]Y(Carboxymethyl)[Orn][dL][Dab][Cha][Val(3-OH)]SC[X5][Aun]-OH; thioether N-14)
3,8.3 nM,Cc1cccc(C[C@@H]2NC(=O)[C@H](CC(=O)O)NC(=O)[C@H](Cc3ccc(OCC(=O)O)cc3)NC(=O)[C@H](CN)NC(=O)CSC[C@@H](C(=O)N[C@@H](CCN)C(=O)NCCOCCOCC(=O)NCCCCCCCCCCC(=O)O)NC(=O)[C@H](CCCN)NC(=O)[C@H](C(C)C)NC(=O)[C@H](CC3CCCCC3)NC(=O)[C@H](CCN)NC(=O)[C@@H](CC(C)C)NC(=O)[C@H](CCCN)NC(=O)[C@H](Cc3ccc(O)cc3)NC(=O)[C@H](Cc3ccc(-c4ccccc4)cc3)NC(=O)[C@H](Cc3cccc(F)c3)NC2=O)c1 [Compound 2262] ({CH2CO}-[Dap]Y(Carboxymethyl)D[Phe(3-Me)][Phe(3-F)][Bip]Y[Orn][dL][Dab][Cha]V[Orn]C[Dab][AEEA][Aun]-OH; thioether N-14)
4,13.1 nM,Cc1cccc(C[C@@H]2NC(=O)[C@H](CC(=O)O)NC(=O)[C@H](Cc3ccc(OCC(=O)O)cc3)NC(=O)[C@H](CCCNC(=N)N)NC(=O)CSC[C@@H](C(=O)N[C@@H](CCN)C(=O)NCCCCCCCCCCC(=O)O)NC(=O)[C@H]([C@@H](C)O)NC(=O)C(C(C)(C)F)NC(=O)[C@H](CC3CCCCC3)NC(=O)[C@H](CCN)NC(=O)[C@@H](CC(C)C)NC(=O)[C@H](CCCN)NC(=O)[C@H](Cc3ccc(OCC(=O)O)cc3)NC(=O)[C@H](Cc3ccc(-c4ccccc4)cc3)NC(=O)[C@H](Cc3ccc(O)cc3)NC2=O)c1 (stereo partly drawn) [Compound 2264] ({CH2CO}-RY(Carboxymethyl)D[Phe(3-Me)]Y[Bip]Y(Carboxymethyl)[Orn][dL][Dab][Cha][X8]TC[Dab][Aun]-OH; thioether N-14)
5,37.4 nM,Cc1cccc(C[C@@H]2NC(=O)[C@H](CC(=O)O)NC(=O)[C@H](Cc3ccc(OCC(=O)O)cc3)NC(=O)[C@H](CN)NC(=O)CSC[C@@H](C(=O)N[C@@H](CCN)C(=O)NCCOCCOCC(=O)NCCCCCCCCCCC(=O)O)NC(=O)[C@H](CN)NC(=O)[C@H](Cc3ccc(O)cc3)NC(=O)[C@H](CC3CCCCC3)NC(=O)[C@H](CCN)NC(=O)[C@@H](CC(C)C)NC(=O)[C@H](CCCN)NC(=O)[C@H](Cc3ccc(O)cc3)NC(=O)[C@H](Cc3ccc(-c4ccccc4)cc3)NC(=O)[C@H](Cc3ccc(O)cc3)NC2=O)c1 [Compound 2504] ({CH2CO}-[Dap]Y(Carboxymethyl)D[Phe(3-Me)]Y[Bip]Y[Orn][dL][Dab][Cha]Y[Dap]C[Dab][AEEA][Aun]-OH; thioether N-14)
6,20.9 nM,Cc1cccc(C[C@@H]2NC(=O)[C@H](CC(=O)O)NC(=O)[C@H](Cc3ccc(OCC(=O)O)cc3)NC(=O)[C@H](CN)NC(=O)CSC[C@@H](C(=O)N[C@@H](CCN)C(=O)NCCOCCOCC(=O)NCCCCCCCCCCC(=O)O)NC(=O)[C@H](CCCN)NC(=O)[C@H](Cc3ccc(O)cc3)NC(=O)[C@H](CC3CCCCC3)NC(=O)[C@H](CCN)NC(=O)[C@@H](CC(C)C)NC(=O)[C@H](CCCN)NC(=O)[C@H](Cc3ccc(O)cc3)NC(=O)[C@H](Cc3ccc(-c4ccccc4)cc3)NC(=O)[C@H](Cc3ccc(O)cc3)NC2=O)c1 [Compound 2505] ({CH2CO}-[Dap]Y(Carboxymethyl)D[Phe(3-Me)]Y[Bip]Y[Orn][dL][Dab][Cha]Y[Orn]C[Dab][AEEA][Aun]-OH; thioether N-14)
7,32.4 nM,Cc1cccc(C[C@@H]2NC(=O)[C@H](CC(=O)O)NC(=O)[C@H](Cc3ccc(OCC(=O)O)cc3)NC(=O)[C@H](CN)NC(=O)CSC[C@@H](C(=O)N[C@@H](CCN)C(=O)NCCOCCOCC(=O)NCCCCCCCCCCC(=O)O)NC(=O)[C@H](CCCNC(=N)N)NC(=O)[C@H](Cc3ccc(O)cc3)NC(=O)[C@H](CC3CCCCC3)NC(=O)[C@H](CCN)NC(=O)[C@@H](CC(C)C)NC(=O)[C@H](CCCN)NC(=O)[C@H](Cc3ccc(O)cc3)NC(=O)[C@H](Cc3ccc(-c4ccccc4)cc3)NC(=O)[C@H](Cc3ccc(O)cc3)NC2=O)c1 [Compound 2506] ({CH2CO}-[Dap]Y(Carboxymethyl)D[Phe(3-Me)]Y[Bip]Y[Orn][dL][Dab][Cha]YRC[Dab][AEEA][Aun]-OH; thioether N-14)

# Second part, the compound before the results:
row,SMILES,IC50
1,Cc1cccc(C[C@@H]2NC(=O)[C@H](CC(=O)O)NC(=O)[C@H](Cc3ccc(OCC(=O)O)cc3)NC(=O)C(CN3CCOCC3)NC(=O)CSC[C@@H](C(=O)N[C@@H](CCN)C(=O)NCCCCCCCCCCCCC(=O)O)NC(=O)[C@H](CO)NC(=O)[C@H](C(C)(C)O)NC(=O)[C@H](CC3CCCCC3)NC(=O)[C@H](CCN)NC(=O)[C@@H](CC(C)C)NC(=O)[C@H](CCCN)NC(=O)[C@H](Cc3ccc(OCC(=O)O)cc3)NC(=O)[C@H](Cc3ccc(-c4ccccc4)cc3)NC(=O)[C@H](Cc3ccc(OCC(=O)O)cc3)NC2=O)c1 (stereo partly drawn) [Compound 2260] ({CH2CO}-[X17]Y(Carboxymethyl)D[Phe(3-Me)]Y(Carboxymethyl)[Bip]Y(Carboxymethyl)[Orn][dL][Dab][Cha][Val(3-OH)]SC[Dab]-{NH(CH2)12COOH}; thioether N-14),9.4 nM
2,Cc1cccc(C[C@@H]2NC(=O)[C@H](CC(=O)O)NC(=O)[C@H](Cc3ccc(OCC(=O)O)cc3)NC(=O)[C@H](Cc3ccc(OCC(=O)O)cc3)NC(=O)CSC[C@@H](C(=O)N[C@@H](CCN)C(=O)NCCCCCCCCCCC(=O)O)NC(=O)[C@H](C(C)O)NC(=O)[C@H](C(C)C)NC(=O)[C@H](CC3CCCCC3)NC(=O)[C@H](CCN)NC(=O)[C@@H](CC(C)C)NC(=O)[C@H](CCCN)NC(=O)[C@H](Cc3ccc(OCC(=O)O)cc3)NC(=O)[C@H](Cc3ccc(-c4ccccc4)cc3)NC(=O)[C@H](C(C)C)NC2=O)c1 (stereo partly drawn) [Compound 2263] ({CH2CO}-Y(Carboxymethyl)Y(Carboxymethyl)D[Phe(3-Me)]V[Bip]Y(Carboxymethyl)[Orn][dL][Dab][Cha]V[Thr(3ξ)]C[Dab][Aun]-OH; thioether N-14),38.2 nM
3,CC(C)C[C@H]1NC(=O)[C@H](CCCN)NC(=O)[C@H](Cc2ccc(O)cc2)NC(=O)[C@H](Cc2ccc(-c3ccccc3)cc2)NC(=O)[C@H](Cc2ccc(O)cc2)NC(=O)[C@H](Cc2c[nH]c3ccccc23)NC(=O)[C@H](CC(=O)O)NC(=O)[C@H](Cc2ccc(C(=O)O)cc2)NC(=O)[C@H](Cc2ccc(OCC(=O)O)cc2)NC(=O)CSC[C@@H](C(=O)N[C@@H](CCN)C(=O)NCCOCCOCC(=O)NCCCCCCCCCCC(=O)O)NC(=O)[C@H](CCCCN)NC(=O)[C@H](Cc2ccc(O)cc2)NC(=O)[C@H](CC2CCCCC2)NC(=O)[C@H](CCN)NC1=O [Compound 2501] ({CH2CO}-Y(Carboxymethyl)[Phe(4-COOH)]DWY[Bip]Y[Orn][dL][Dab][Cha]YKC[Dab][AEEA][Aun]-OH; thioether N-14),28.4 nM
4,CC(C)C[C@H]1NC(=O)[C@H](CCCN)NC(=O)[C@H](Cc2ccc(O)cc2)NC(=O)[C@H](Cc2ccc(-c3ccccc3)cc2)NC(=O)[C@H](Cc2ccc(O)cc2)NC(=O)[C@H](Cc2c[nH]c3ccccc23)NC(=O)[C@H](CC(=O)O)NC(=O)[C@H](Cc2ccc(OCC(=O)O)cc2)NC(=O)[C@H](Cc2ccc(OCC(=O)O)cc2)NC(=O)CSC[C@@H](C(=O)N[C@@H](CCN)C(=O)NCCOCCOCC(=O)NCCCCCCCCCCC(=O)O)NC(=O)[C@H](CCCNC(=N)N)NC(=O)[C@H](Cc2ccc(O)cc2)NC(=O)[C@H](CC2CCCCC2)NC(=O)[C@H](CCN)NC1=O [Compound 2502] ({CH2CO}-Y(Carboxymethyl)Y(Carboxymethyl)DWY[Bip]Y[Orn][dL][Dab][Cha]YRC[Dab][AEEA][Aun]-OH; thioether N-14),21.2 nM
5,CC(C)C[C@H]1NC(=O)[C@H](CCCN)NC(=O)[C@H](Cc2ccc(O)cc2)NC(=O)[C@H](Cc2ccc(-c3ccccc3)cc2)NC(=O)[C@H](Cc2ccc(O)cc2)NC(=O)[C@H](Cc2c[nH]c3ccccc23)NC(=O)[C@H](CC(=O)O)NC(=O)[C@H](Cc2ccc(OCC(=O)O)cc2)NC(=O)[C@H](CN)NC(=O)CSC[C@@H](C(=O)N[C@@H](CCN)C(=O)NCCOCCOCC(=O)NCCCCCCCCCCC(=O)O)NC(=O)[C@H](CCCCN)NC(=O)[C@H](Cc2ccc(O)cc2)NC(=O)[C@H](CC2CCCCC2)NC(=O)[C@H](CCN)NC1=O [Compound 2503] ({CH2CO}-[Dap]Y(Carboxymethyl)DWY[Bip]Y[Orn][dL][Dab][Cha]YKC[Dab][AEEA][Aun]-OH; thioether N-14),39.9 nM

# — US20260022142A1, “MACROCYCLIC IMMUNOMODULATORS” (Bristol-Myers Squibb Company, priority 2022, published 2026)
